Like-named read-outs stand apart in the source and are kept apart here.
Assays:
Type in all cases: in vivo
[1] = test system: Spodoptera littoralis; test: Spodoptera littoralis (Egyptian cotton leafworm) cotton leaf disc test; settings: foliar, 72 h, 200 ppm sprayed on cotton leaf discs, mortality, feeding behavior, growth regulation 3 days after treatment
Experimental: Spodoptera littoralis (Egyptian Cotton Leafworm): Cotton leaf discs were placed on agar in a 24-well microtiter plate and sprayed with test solutions at an application rate of 200 ppm. After drying, the leaf discs were infested with […]. The samples were checked for mortality, feeding behavior, and growth regulation 3 days after treatment (DAT).

[2] = test system: Heliothis virescens; test: Heliothis virescens (tobacco budworm) egg test on artificial diet; settings: 96 h, 200 ppm (concentration in well 18 ppm), eggs on artificial diet, egg mortality, larval mortality, growth regulation after 4 days
Experimental: Heliothis virescens (Tobacco Budworm): Eggs (0-24 h old) were placed in 24-well microtiter plate on artificial diet and treated with test solutions at an application rate of 200 ppm (concentration in well 18 ppm) by pipetting. After an incubation period of 4 days, samples were checked for egg mortality, larval mortality, and growth regulation.

[3] = test system: Plutella xylostella; test: Plutella xylostella (diamond back moth) artificial diet test; settings: 144 h, 200 ppm (concentration in well 18 ppm), L2 larvae, larval mortality and growth regulation after 6 days
Experimental: (§1) Plutella xylostella (Diamond Back Moth): 24-well microtiter plate (MTP) with artificial diet was treated with test solutions at an application rate of 200 ppm (concentration in well 18 ppm) by pipetting. After drying, the MTPs were infested with L2 larvae (7-12 per well). After an incubation period of 6 days, samples were checked for larval mortality and growth regulation.

[4] = test system: Diabrotica balteata; test: Diabrotica balteata (corn root worm) artificial diet test; settings: 120 h, 200 ppm (concentration in well 18 ppm), L2 larvae, larval mortality and growth regulation after 5 days
Experimental: as §1, with “Diabrotica balteata (Corn Root Worm): A” for “Plutella xylostella (Diamond Back Moth):”, “(6-10” for “(7-12”, “5” for “6”

[5] = test system: Thrips tabaci; test: Thrips tabaci (onion thrips) sunflower leaf disc test; settings: foliar, 168 h, 200 ppm sprayed on sunflower leaf discs, mixed ages, mortality after 7 days
Experimental: Thrips tabaci (Onion Thrips): Sunflower leaf discs were placed on agar in a 24-well microtiter plate and sprayed with test solutions at an application rate of 200 ppm. After drying, the leaf discs were infested with a thrips population of mixed ages. After an incubation period of 7 days, samples were checked for mortality.

[6] = test system: Tetranychus urticae; test: Tetranychus urticae (two-spotted spider mite) bean leaf disc test; settings: foliar, 192 h, 200 ppm sprayed on bean leaf discs, mixed ages, egg, larval and adult mortality 8 days later
Source text: Tetranychus urticae (Two-Spotted Spider Mite): Bean leaf discs on agar in 24-well microtiter plates were sprayed with test solutions at an application rate of 200 ppm. After drying, the leaf discs are infested with mite populations of mixed ages. 8 days later, discs are checked for egg mortality, larval mortality, and adult mortality.

[7] = test system: Spodoptera littoralis; test: Spodoptera littoralis persistence test on sprayed cotton plants (increased safety profile / bio-degradability); settings: Spodoptera littoralis, 12.5 ppm on cotton plants, 10 L3 larvae, mortality after 6 days incubation
Experimental: Biological Examples Showing Increased Safety Profile:
Spodoptera littoralis (Egyptian Cotton Leafworm)
Cotton plants in the 5th leaf stage (around 5 weeks old) are treated in an automated turn table spray chamber. Plants are stored in the greenhouse length during the whole test period.
2, 16 and optionally 10 days after treatment 4 leaves from each sample are excised, placed into 14 cm plastic petri dishes on wet filter paper. The infestation of 10 L3-Spodoptera littoralis is made immediately afterwards. After an incubation period of 6 days the samples are checked for mortality.
In the following series of experiments the compounds of the invention are compared with the corresponding isoxazoline analogues from the prior art on Spodoptera littoralis (Egyptian cotton leafworm) performed as described in the method above.

[8] = 48 h, leaves excised 2 days after treatment, read-out: Control after 2 days/%
[9] = 384 h, leaves excised 16 days after treatment, read-out: Control after 16 days/%

SMILES	pest or weed control at 200 ppm [1] [%]	pest or weed control at 200 ppm [2] [%]	pest or weed control at 200 ppm [3] [%]	pest or weed control at 200 ppm [4] [%]	pest or weed control at 200 ppm [5] [%]	pest or weed control at 200 ppm [6] [%]	pest or weed control at 12.5 ppm [7, 8] [%]	pest or weed control at 12.5 ppm [7, 9] [%]
Cc1cc(C2=NSC(c3cc(Cl)cc(Cl)c3)(C(F)(F)F)C2)ccc1C(=O)Nc1ccc(F)cc1 (centres unmarked) [Compound A59]	≥ 80	≥ 80	≥ 80	≥ 80	≥ 80	≥ 80	100	10
CO/N=C/NC(=O)c1ccc(C2=NSC(c3cc(Cl)cc(Cl)c3)(C(F)(F)F)C2)cc1C (centres unmarked) [Compound C1, 4-[5-(3,5-dichlorophenyl)-5-(trifluoromethyl)-4H-isothiazol-3-yl]-N-[(E)-methoxyiminomethyl]-2-methyl-benzamide]	≥ 80	≥ 80	≥ 80	≥ 80	≥ 80	≥ 80	100	5
CO/N=C/NC(=O)c1ccc(C2=NSC(c3cc(Cl)cc(Cl)c3)(C(F)(F)F)C2)cc1Cl (centres unmarked) [Compound C3, 2-chloro-4-[5-(3,5-dichlorophenyl)-5-(trifluoromethyl)-4H-isothiazol-3-yl]-N-[(E)-methoxyiminomethyl]benzamide]	≥ 80	≥ 80	≥ 80	≥ 80	≥ 80	≥ 80	100	0
Cc1cc(C2=NSC(c3cc(Cl)c(Cl)c(Cl)c3)(C(F)(F)F)C2)ccc1C(=O)NCC(=O)NCC(F)(F)F (centres unmarked) [Compound D1, 2-methyl-N-[2-oxo-2-(2,2,2-trifluoroethylamino)ethyl]-4-[5-(3,4,5-trichlorophenyl)-5-(trifluoromethyl)-4H-isothiazol-3-yl]benzamide]	≥ 80	≥ 80	≥ 80	≥ 80	≥ 80	≥ 80	100	10
